Test results published in patent publication US20070093520A1, “Method of treatment of diarrhea-predominant irritable bowel syndrome in a subject” (priority 2005, published 2007).
Where two headings read alike, the source gives them in different places.

Test system: diarrhea-predominant IBS subjects
Assay type: in vivo, human
Conditions: for TEAE incidence: constipation / TEAE incidence: nausea: 3007 Study
Method: The study was performed in approximately 150 study centers. Approximately 1600 eligible subjects were to be given cilansetron 2 mg TID. At Visit 1, pre-treatment assessments were conducted. […] Subjects were to return to the study site one month later for Visit 3 (Day 31) for their first interim assessment. […] All subjects who discontinued from the study were to have the same post-study assessments required at Visit 7 performed at their early termination visit. […]
Stool specimens were analyzed at every visit for occult blood. An independent GERB had been established to provide advice on GI AEs during the course of the study.
Adverse events were assessed at Baseline, at each clinic visit, and at the end of the study (Month 12 or the early termination visit). All AEs, which occurred during the study were followed up in accordance with good medical practice until resolved or judged no longer clinically significant, or if a condition was chronic, until fully characterized. Adverse events could occur in the specified follow-up period and, regardless of the interval since the last administration of the study medication, were treated in the same manner as an AE which occurred during the treatment with study medication. Each AE was evaluated for duration, severity, seriousness, and causal relationship to the investigational drug. The action taken and the outcome were also recorded.
Specifically, subjects who were lost to follow-up and had no post-Baseline contact with the site were excluded from the Safety population. The subjects who discontinued from the study due to lost to follow-up were identified based on the information collected on the study termination CRF page.
After the pretreatment assessment at Visit 1 (Days […] to −3), subjects were to return to the study site for a Baseline assessment and start the treatment at Visit 2 (Day 1).
For the by time-interval analyses of disposition, prevalence of AEs, and of markedly abnormal and predefined changes in laboratory values, vital signs, and ECGs, the following interval windows were used:
Adverse events that were already present prior to the first dose of cilansetron study medication but increased in severity afterwards were considered as treatment-emergent.
The 5% cutoff point was based on the incidence within higher level terms.
Subjects were counted at most once for each primary system organ class and preferred term. Serious AEs that resolved prior to receiving study medication or occurred more than 30 days after the last dose of study medication were not included in the incidence tables. A listing of all SAEs is presented; SAEs with onset prior to receiving study medication or more than 30 days after discontinuation of study medication were flagged. The listing presents lower level term and preferred term of the SAE, severity, action taken, outcome, and relationship of the SAE, start and stop date of the SAE, study day of onset of the SAE, age, race, and sex.

[1] = 2 mg, Safety Population, 3008, under Neoplasms Benign, Malignant and Unspecified
[2] = 2 mg, Safety Population, 3008, under Pregnancy, Puerperium and Perinatal Conditions
[3] = 2 mg, Safety Population, 3008, under Social Circumstances
[4] = 2 mg, Safety Population, 3008, under Surgical and Medical Procedures
[5] = 2 mg, Safety Population, 3008, under Vascular Disorders

SMILES: Cc1nccn1C[C@H]1CCc2c(c3cccc4c3n2CCC4)C1=O [cilansetron, (R)-(−)-4,5,6,8,9,10-hexahydro-10-[(2-methyl-1H-imidazol-1-yl)methyl]-11H-pyrido-[3,2,1-jk]-carbazol-11-one]
- TEAE incidence: Haemangioma of Liver [1]: 2 (<1%) n (%)
- TEAE incidence: Hepatobiliary Neoplasms Benign [1]: 2 (<1%) n (%)
- TEAE incidence: Large Cell Carcinoma of the Respiratory Tract Stage Unspecified [1]: 1 (<1%) n (%)
- TEAE incidence: Lip and Oral Cavity Neoplasms Benign [1]: 1 (<1%) n (%)
- TEAE incidence: Lipoma NOS [1]: 2 (<1%) n (%)
- TEAE incidence: Lung Adenocarcinoma NOS [1]: 1 (<1%) n (%)
- TEAE incidence: Non-Hodgkin's Lymphoma NOS [1]: 1 (<1%) n (%)
- TEAE incidence: Non-Hodgkin's Lymphomas NEC [1]: 1 (<1%) n (%)
- TEAE incidence: Non-Small Cell Neoplasms Malignant of the Respiratory Tract Cell Type Specified [1]: 2 (<1%) n (%)
- TEAE incidence: Pancreatic Carcinoma NOS [1]: 1 (<1%) n (%)
- TEAE incidence: Pancreatic Neoplasms Malignant (Excl Islet Cell and Carcinoid) [1]: 1 (<1%) n (%)
- TEAE incidence: Rectal Cancer NOS [1]: 1 (<1%) n (%)
- TEAE incidence: Rectal Neoplasms Malignant [1]: 1 (<1%) n (%)
- TEAE incidence: Salivary Gland Adenoma [1]: 1 (<1%) n (%)
- TEAE incidence: Soft Tissue Neoplasms Benign NEC [1]: 2 (<1%) n (%)
- TEAE incidence: Urinary Tract Neoplasms Benign [1]: 1 (<1%) n (%)
- TEAE incidence: Urinary Tract Neoplasms Unspecified Malignancy NEC [1]: 1 (<1%) n (%)
- TEAE incidence: Uterine Fibroids* [1]: 3 (<1%) n (%)
- TEAE incidence: Uterine Neoplasms Benign* [1]: 3 (<1%) n (%)
- TEAE incidence: Normal Pregnancy, Labour and Delivery* [2]: 2 (<1%) n (%)
- TEAE incidence: Pregnancy NOS* [2]: 2 (<1%) n (%)
- TEAE incidence: Genital Haemorrhage NOS (2 mg, Safety Population, 3008, under Reproductive Tract Disorders NEC (Excl Neoplasms)): 1 (<1%) n (%)
- TEAE incidence: Age Related Issues [3]: 3 (<1%) n (%)
- TEAE incidence: Menopause* [3]: 3 (<1%) n (%)
- TEAE incidence: Bone Therapeutic Procedures NEC [4]: 1 (<1%) n (%)
- TEAE incidence: Fallopian Tube Therapeutic Procedures* [4]: 1 (<1%) n (%)
- TEAE incidence: Osteosynthesis [4]: 1 (<1%) n (%)
- TEAE incidence: Tubal Ligation* [4]: 1 (<1%) n (%)
- TEAE incidence: Bruising, Ecchymosis and Purpura [5]: 1 (<1%) n (%)
- TEAE incidence: Circulatory Collapse and Shock [5]: 1 (<1%) n (%)
- TEAE incidence: Essential Hypertension [5]: 1 (<1%) n (%)
- TEAE incidence: Hypertension Aggravated [5]: 4 (<1%) n (%)
- TEAE incidence: Hypertension NOS [5]: 15 (1%) n (%)
- TEAE incidence: Non-Site Specific Vascular Disorders NEC [5]: 1 (<1%) n (%)
- TEAE incidence: Orthostatic Hypotension [5]: 3 (<1%) n (%)
- TEAE incidence: Peripheral Embolism and Thrombosis [5]: 1 (<1%) n (%)
- TEAE incidence: Periphlebitis [5]: 1 (<1%) n (%)
- TEAE incidence: Petechiae [5]: 1 (<1%) n (%)
- TEAE incidence: Phlebitis NEC [5]: 4 (<1%) n (%)
- TEAE incidence: Phlebitis NOS [5]: 2 (<1%) n (%)
- TEAE incidence: Phlebitis Superficial [5]: 1 (<1%) n (%)
- TEAE incidence: Shock [5]: 1 (<1%) n (%)
- TEAE incidence: Varicose Veins NOS [5]: 1 (<1%) n (%)
- TEAE incidence: Varicose Veins Non-Site Specific [5]: 1 (<1%) n (%)
- TEAE incidence: Vascular Disorder NOS [5]: 1 (<1%) n (%)
- TEAE incidence: Vascular Hypertensive Disorders NEC [5]: 20 (1%) n (%)
- TEAE incidence: Vascular Hypotensive Disorders [5]: 3 (<1%) n (%)
- TEAE incidence: Venous Thrombosis Deep Limb [5]: 1 (<1%) n (%)
- TEAE incidence: constipation (all subjects): 15%
- TEAE incidence: nausea (all subjects): 5%
- TEAE incidence: constipation (females): 19%
- TEAE incidence: nausea (females): 7%
- TEAE incidence: constipation (males): 11%
- TEAE incidence: nausea (males): 3%
- TEAE incidence: Abdominal Discomfort (Cilansetron 2 mg, N=1454): 6 (<1%) n (%)
- TEAE incidence: Abdominal Distension (Cilansetron 2 mg, N=1454): 57 (4%) n (%)
- TEAE incidence: Abdominal Findings Abnormal (Cilansetron 2 mg, N=1454): 2 (<1%) n (%)
- TEAE incidence: Abdominal Hernias, Site Unspecified (Cilansetron 2 mg, N=1454): 1 (<1%) n (%)
- TEAE incidence: Abdominal Pain Aggravated (Cilansetron 2 mg, N=1454): 8 (<1%) n (%)
- TEAE incidence: Abdominal Pain Lower (Cilansetron 2 mg, N=1454): 21 (1%) n (%)
- TEAE incidence: Abdominal Pain Upper (Cilansetron 2 mg, N=1454): 50 (3%) n (%)
- TEAE incidence: Abdominal Rigidity (Cilansetron 2 mg, N=1454): 1 (<1%) n (%)
- TEAE incidence: Abnormal Sleep-Related Events (Cilansetron 2 mg, N=1454): 1 (<1%) n (%)
- TEAE incidence: Abscess Limb (Cilansetron 2 mg, N=1454): 1 (<1%) n (%)
- TEAE incidence: Abscess NOS (Cilansetron 2 mg, N=1454): 1 (<1%) n (%)
- TEAE incidence: Absence Seizures (Cilansetron 2 mg, N=1454): 1 (<1%) n (%)
- TEAE incidence: Acute and Chronic Pancreatitis (Cilansetron 2 mg, N=1454): 1 (<1%) n (%)
- TEAE incidence: Aerophagia (Cilansetron 2 mg, N=1454): 1 (<1%) n (%)
- TEAE incidence: Alanine Aminotransferase Increased (Cilansetron 2 mg, N=1454): 19 (1%) n (%)
- TEAE incidence: Anal Abscess (Cilansetron 2 mg, N=1454): 1 (<1%) n (%)
- TEAE incidence: Anal Discomfort (Cilansetron 2 mg, N=1454): 3 (<1%) n (%)
- TEAE incidence: Anal Fissure (Cilansetron 2 mg, N=1454): 5 (<1%) n (%)
- TEAE incidence: Anal Haemorrhage (Cilansetron 2 mg, N=1454): 2 (<1%) n (%)
- TEAE incidence: Anal Ulcer (Cilansetron 2 mg, N=1454): 1 (<1%) n (%)
- TEAE incidence: Anal and Colorectal Neoplasms NEC (Cilansetron 2 mg, N=1454): 1 (<1%) n (%)
- TEAE incidence: Anal and Rectal Disorders NEC (Cilansetron 2 mg, N=1454): 8 (<1%) n (%)
- TEAE incidence: Anal and Rectal Pains (Cilansetron 2 mg, N=1454): 7 (<1%) n (%)
- TEAE incidence: Anal and Rectal Signs and Symptoms (Cilansetron 2 mg, N=1454): 7 (<1%) n (%)
- TEAE incidence: Anal and Rectal Ulcers and Perforation (Cilansetron 2 mg, N=1454): 2 (<1%) n (%)
- TEAE incidence: Antibiotic Associated Colitis (Cilansetron 2 mg, N=1454): 1 (<1%) n (%)
- TEAE incidence: Aphthous Stomatitis (Cilansetron 2 mg, N=1454): 1 (<1%) n (%)
- TEAE incidence: Appendiceal Abscess (Cilansetron 2 mg, N=1454): 1 (<1%) n (%)
- TEAE incidence: Appendicitis (Cilansetron 2 mg, N=1454): 1 (<1%) n (%)
- TEAE incidence: Arterial Pressure NOS Increased (Cilansetron 2 mg, N=1454): 1 (<1%) n (%)
- TEAE incidence: Aspartate Aminotransferase Increased (Cilansetron 2 mg, N=1454): 16 (1%) n (%)
- TEAE incidence: Benign Oral Cavity Neoplasms (Cilansetron 2 mg, N=1454): 1 (<1%) n (%)
- TEAE incidence: Bilirubin Urine (Cilansetron 2 mg, N=1454): 1 (<1%) n (%)
- TEAE incidence: Blood Alkaline Phosphatase NOS Increased (Cilansetron 2 mg, N=1454): 7 (<1%) n (%)
- TEAE incidence: Blood Bilirubin Increased (Cilansetron 2 mg, N=1454): 5 (<1%) n (%)
- TEAE incidence: Blood Bilirubin Unconjugated Increased (Cilansetron 2 mg, N=1454): 1 (<1%) n (%)
- TEAE incidence: Blood Cholesterol Increased (Cilansetron 2 mg, N=1454): 25 (2%) n (%)
- TEAE incidence: Blood Creatine Phosphokinase Increased (Cilansetron 2 mg, N=1454): 31 (2%) n (%)
- TEAE incidence: Blood Creatinine Increased (Cilansetron 2 mg, N=1454): 1 (<1%) n (%)
- TEAE incidence: Blood Glucose Increased (Cilansetron 2 mg, N=1454): 2 (<1%) n (%)
- TEAE incidence: Blood Potassium Increased (Cilansetron 2 mg, N=1454): 3 (<1%) n (%)
- TEAE incidence: Blood Pressure (Cilansetron 2 mg, N=1454): 1 (<1%) n (%)
- TEAE incidence: Blood Pressure Increased (Cilansetron 2 mg, N=1454): 5 (<1%) n (%)
- TEAE incidence: Blood Thyroid Stimulating Hormone Increased (Cilansetron 2 mg, N=1454): 2 (<1%) n (%)
- TEAE incidence: Blood Triglycerides Increased (Cilansetron 2 mg, N=1454): 11 (<1%) n (%)
- TEAE incidence: Blood Urea Increased (Cilansetron 2 mg, N=1454): 2 (<1%) n (%)
- TEAE incidence: Blood Uric Acid Increased (Cilansetron 2 mg, N=1454): 7 (<1%) n (%)
- TEAE incidence: Blood Urine Present (Cilansetron 2 mg, N=1454): 11 (<1%) n (%)
- TEAE incidence: Blood in Stool (Cilansetron 2 mg, N=1454): 13 (<1%) n (%)
- TEAE incidence: Body Temperature Decreased (Cilansetron 2 mg, N=1454): 2 (<1%) n (%)
- TEAE incidence: Body Temperature Increased (Cilansetron 2 mg, N=1454): 5 (<1%) n (%)
- TEAE incidence: Body Tinea (Cilansetron 2 mg, N=1454): 2 (<1%) n (%)
- TEAE incidence: Bowel Sounds Abnormal (Cilansetron 2 mg, N=1454): 1 (<1%) n (%)
- TEAE incidence: Bronchitis Acute NOS (Cilansetron 2 mg, N=1454): 24 (2%) n (%)
- TEAE incidence: Bronchitis Chronic NOS (Cilansetron 2 mg, N=1454): 2 (<1%) n (%)
- TEAE incidence: Bronchitis NOS (Cilansetron 2 mg, N=1454): 27 (2%) n (%)
- TEAE incidence: Bronchopneumonia NOS (Cilansetron 2 mg, N=1454): 1 (<1%) n (%)
- TEAE incidence: Burning Sensation NOS (Cilansetron 2 mg, N=1454): 1 (<1%) n (%)
- TEAE incidence: Campylobacter Gastroenteritis (Cilansetron 2 mg, N=1454): 1 (<1%) n (%)
